{"source": "ChEMBL document CHEMBL1212753", "about": "“Inducible APOBEC3G-Vif double stable cell line as a high-throughput screening platform to identify antiviral compounds” (Antimicrob Agents Chemother, 2010)", "key": {"[1]": {"experiment": "Inhibition of HIV Vif induced human cytidine-deaminase degradation in double transgenic HEK293 cells constitutively expressing enhanced yellow fluorescent protein expressor (EYFP-A3G) fusion and Tet-Off controllable Vif protein after 24 hrs by fluorimetric assay", "assay_type": "cell-based, Human immunodeficiency virus"}, "[2]": {"experiment": "Inhibition of HIV Vif by replicating virus inhibition assay", "design": "species or system Human immunodeficiency virus"}}, "data": [{"compound": "COc1ccccc1NC(=O)c1ccccc1Sc1ccc([N+](=O)[O-])cc1", "values": [{"measurement": "EC50", "setting": "[1]", "value": 5.8, "unit": "µM"}, {"measurement": "EC50", "setting": "[2]", "value": 3, "unit": "µM"}]}]}
